Data taken from patent US20250213701A1, “MEDICAMENT FOR TREATING HUMAN TUMOR BASED ON ERF3A-TARGETING PROTEOLYSIS MECHANISM” (SUZHOU DEGEN BIO-MEDICAL CO., LTD., priority 2022, published 2025).

Experiments:
Assay type in all cases: cell-based, human
PC-3 cells = assay: Anti-proliferative toxicity against prostate cancer cell line PC-3 (CCK8); details: 3 days
Protocol: (§1) Example 82: Detection of Anti-Proliferative Toxicity Against Prostate Cancer Cell Lines Vcap, 22Rv1, and PC-3
PC-3 cells (purchased from the Cell Bank of the Chinese Academy of Sciences, Cat. No. SCSP-532) were subcultured in a culture medium (F12K medium+1% penicillin-streptomycin dual-antibiotic solution+10% fetal bovine serum) in an incubator at 5% carbon dioxide and 37° C.
PC-3 cells were seeded at 4000 cells/well (90 μL) on a 96-well plate and cultured for 24 h.
(§2) 10 mM compound stock solutions were prepared in DMSO.
(§3) For 22Rv1 cells and PC-3 cells, the compound stock solution was diluted with DMSO to give DMSO solutions 11-19 at concentrations of 0 μM, 500 μM, 100 μM, 20 μM, 4 μM, 0.8 μM, 0.16 μM, 0.032 μM, 0.0064 μM.
For PC-3 cells, 2 μL of each of the above solutions 11-19 was added to 98 μL of PC-3 medium to give mixed solutions 39-47 of the compound and the medium.
(§4) For 22Rv1 and PC-3 cells, 10 μL of each of the above solutions 30-38 or 39-47 was added to the above cell seed solution to give a total volume of 100 μL (90 μL+10 μL), where the concentrations of the compound in wells were 0 μM, 1.0 μM, 0.2 μM, 0.04 μM, 0.008 μM, 0.0016 μM, 0.00032 μM, 0.00006 μM, and 0.00001 μM. All concentrations were in triplicate.
(§5) After the above-treated cells were cultured for 3 days, 10 μL of the CCK8 solution (DOJINDO, Cat. No. PF725) was added to each well. The plate was incubated in an incubator at 37° C. for 1-4 h and then detected on a microplate reader for the reading at 450 nm.

VCaP cells = assay: Anti-proliferative toxicity against prostate cancer cell line Vcap (CCK8); details: 3 days, CCK8
Protocol: as §1
(§6) Vcap cells (purchased from the Cell Bank of the Chinese Academy of Sciences, Cat. No. SCSP-5034) were subcultured in a culture medium (DMEM medium+1% penicillin-streptomycin dual-antibiotic solution+10% fetal bovine serum) in an incubator at 5% carbon dioxide and 37° C. 22Rv1 cells (purchased from the Cell Bank of the Chinese Academy of Sciences, Cat. No. TCHu100) were subcultured in a culture medium (RPMI-1640 medium+1% penicillin-streptomycin dual-antibiotic solution+10% fetal bovine serum) in an incubator at 5% carbon dioxide and 37° C.
VCap cells were seeded at 20000 cells/well (90 μL) on a 96-well plate and cultured for 72 h. The original medium was removed, and a new medium of 90 μL was added.
as §2
For VCap cells, the compound stock solution was diluted with DMSO to give DMSO solutions 1-10 at concentrations of 0 μM, 80 μM, 16 μM, 3.2 μM, 1.5 μM, 0.5 μM, 0.15 μM, 0.05 μM, 0.025 μM, and 0.0005 μM.
For Vcap cells, 2 μL of each of the above solutions 1-10 was added to 98 μL of Vcap medium to give mixed solutions 20-29 of the compound and the medium.
For Vcap cells, 10 μL of each of the above solutions 20-29 was added to the above cell seed solution to give a total volume of 100 μL (90 μL+10 μL), where the concentrations of the compound in wells were 0 μM, 0.16 μM, 0.032 μM, 0.006 μM, 0.003 μM, 0.001 μM, 0.0003 μM, 0.0001 μM, 0.00005 μM, and 0.00001 μM. All concentrations were in triplicate.
as §5

22Rv1 cells = assay: Anti-proliferative toxicity against prostate cancer cell line 22Rv1 (CCK8); details: 3 days, CCK8
Protocol: as §1, §6
22Rv1 cells were seeded at 5000 cells/well (90 μL) on a 96-well plate and cultured for 48 h.
as §2, §3
For 22Rv1 cells, 2 μL of each of the above solutions 11-19 was added to 98 μL of 22Rv1 medium to give mixed solutions 30-38 of the compound and the medium.
as §4, §5

| Molecule | IC50 (PC-3 cells; Homo sapiens, 72 h) | IC50 (VCaP cells; Homo sapiens, 72 h) | IC50 (22Rv1 cells; Homo sapiens, 72 h) | IC50 (PC-3 cells) | IC50 (VCaP cells) | IC50 (22Rv1 cells) |
| --- | --- | --- | --- | --- | --- | --- |
| C[C@]12C=CC(=O)N[C@@H]1CC[C@@H]1[C@@H]2CC[C@]2(C)[C@@H](C(=O)Nc3cccc(N[C@@H]4CCC[C@@H](Nc5cccc6c5CN([C@@H]5CCC(=O)NC5=O)C6=O)C4)c3)CC[C@@H]12 [C66, N-(3-(N—(N-(4-(2-(3R-(2,6-dioxopiperidine))-1-oxo-2,3-dihydro-1H-isoindol))-1R,3R-cyclohexanediamine))phenyl)-3-oxo-4-aza-5α-androst-1-ene-17β-carboxamide] | > 1000 nM | > 1000 nM | > 1000 nM |  |  |  |
| C[C@]12C=CC(=O)N[C@@H]1CC[C@@H]1[C@@H]2CC[C@]2(C)[C@@H](C(=O)NCCCNc3cccc4c3C(=O)N(C3CCC(=O)NC3=O)C4=O)CC[C@@H]12 (stereo partly drawn) [C3, N-(3-((4-(2-(3-(2,6-dioxopiperidine))-isoindole-1,3-dione))amino)propyl)-3-oxo-4-aza-5α-androst-1-ene-17β-carboxamide] | > 1000 nM | > 1000 nM | > 1000 nM |  |  |  |
| C[C@]12C=CC(=O)N[C@@H]1CC[C@@H]1[C@@H]2CC[C@]2(C)[C@@H](C(=O)N3CCC(CN4CCN(c5cccc6c5C(=O)N(C5CCC(=O)NC5=O)C6=O)CC4)CC3)CC[C@@H]12 (stereo partly drawn) [C13, 1-(4-(2-(3-(2,6-dioxopiperidine))-isoindole-1,3-dione))-4-(4-(1-(3-oxo-4-aza-5α-androst-1-ene-17β-formyl)piperidine)methyl)-piperazine] | > 1000 nM | > 1000 nM | > 1000 nM |  |  |  |
| CC(C)(C)C(=O)OCN1C(=O)CC[C@H](N2C(=O)c3cccc(N[C@@H]4CCC[C@@H](Nc5cccc(NC(=O)[C@H]6CC[C@H]7[C@@H]8CC[C@H]9NC(=O)C=C[C@]9(C)[C@H]8CC[C@]67C)c5)C4)c3C2=O)C1=O [C67, N-(3-(N—(N-(4-(2-(3S-(1-pivaloyloxymethyl-2,6-dioxopiperidine))-isoindole-1,3-dione))-1R,3R-cyclohexanediamine))phenyl)-3-oxo-4-aza-5α-androst-1-ene-17β-carboxamide] | 0.1 to 10 nM | ≤ 0.1 nM | 0.1 to 10 nM |  |  |  |
| C[C@]12C=CC(=O)N[C@@H]1CC[C@@H]1[C@@H]2CC[C@]2(C)[C@@H](C(=O)Nc3ccc(OCCNc4ccc5c(c4)C(=O)N(C4CCC(=O)NC4=O)C5=O)cc3)CC[C@@H]12 (stereo partly drawn) [C16, N-(4-((2-((5-(2-(3-(2,6-dioxopiperidine))-isoindole-1,3-dione))amino)ethyl)oxy)phenyl)-3-oxo-4-aza-5α-androst-1-ene-17β-carboxamide] | > 1000 nM | > 1000 nM | > 1000 nM |  |  |  |
| C[C@]12C=CC(=O)N[C@@H]1CC[C@@H]1[C@@H]2CC[C@]2(C)[C@@H](C(=O)Nc3ccc(OCCCCCNc4ccc5c(c4)C(=O)N(C4CCC(=O)NC4=O)C5=O)cc3)CC[C@@H]12 (stereo partly drawn) [C20, N-(4-((5-((5-(2-(3-(2,6-dioxopiperidine))-isoindole-1,3-dione))amino)pentyl)oxy)phenyl)-3-oxo-4-aza-5α-androst-1-ene-17β-carboxamide] | > 1000 nM | > 1000 nM | > 1000 nM |  |  |  |
| CN(c1cccc(NC(=O)[C@H]2CC[C@H]3[C@@H]4CC[C@H]5NC(=O)C=C[C@]5(C)[C@H]4CC[C@]23C)c1)[C@@H]1CCC[C@@H](Nc2cccc3c2C(=O)N(C2CCC(=O)NC2=O)C3=O)C1 (stereo partly drawn) [C80, N-(3-(N—(N-methyl-N-(4-(2-(3-(2,6-dioxopiperidine))-isoindole-1,3-dione))-1R,3R-cyclohexanediamine))phenyl)-3-oxo-4-aza-5α-androst-1-ene-17β-carboxamide] | 10 to 1000 nM | 0.1 to 10 nM | 0.1 to 10 nM |  |  |  |
| C[C@]12C=CC(=O)N[C@@H]1CC[C@@H]1[C@@H]2CC[C@]2(C)[C@@H](C(=O)Nc3cc(OCCCNc4cccc5c4C(=O)N(C4CCC(=O)NC4=O)C5=O)ccn3)CC[C@@H]12 (stereo partly drawn) [C53, N-(2-(4-((3-((4-(2-(3-(2,6-dioxopiperidine))-isoindole-1,3-dione))amino)propyl)oxy)-pyridine))-3-oxo-4-aza-5α-androst-1-ene-17β-carboxamide] | > 1000 nM | > 1000 nM | > 1000 nM |  |  |  |
| CN1C[C@@H](Nc2cccc(NC(=O)[C@H]3CC[C@H]4[C@@H]5CC[C@H]6NC(=O)C=C[C@]6(C)[C@H]5CC[C@]34C)c2)C[C@H](Nc2cccc3c2C(=O)N(C2CCC(=O)NC2=O)C3=O)C1 (stereo partly drawn) [C77, N-(3-(N—(N-(4-(2-(3-(2,6-dioxopiperidine))-isoindole-1,3-dione))-1-methylpiperidine-3S,5S-diamine))phenyl)-3-oxo-4-aza-5α-androst-1-ene-17β-carboxamide] | 10 to 1000 nM | 10 to 1000 nM | 10 to 1000 nM |  |  |  |
| C[C@]12C=CC(=O)N[C@@H]1CC[C@@H]1[C@@H]2CC[C@]2(C)[C@@H](C(=O)Nc3cccc(OCCCCCCCCNc4ccc5c(c4)C(=O)N(C4CCC(=O)NC4=O)C5=O)c3)CC[C@@H]12 (stereo partly drawn) [C40, N-(3-((8-((5-(2-(3-(2,6-dioxopiperidine))-isoindole-1,3-dione))amino)octyl)oxy)phenyl)-3-oxo-4-aza-5α-androst-1-ene-17β-carboxamide] | > 1000 nM | 10 to 1000 nM | > 1000 nM |  |  |  |
| N-(3-(N—(N-(4-(2-(3-(2,6-dioxopiperidine))-isoindole-1,3-dione))-(1R,4S)-bicyclo[2,2,1]heptane-2R,6R-diamine))phenyl)-3-oxo-4-aza-5α-androst-1-ene-17β-carboxamide and N-(3-(N—(N-(4-(2-(3-(2,6-dioxopiperidine))-isoindole-1,3-dione))-(1S,4R)-bicyclo[2,2,1]heptane-2R,6R-diamine))phenyl)-3-oxo-4-aza-5α-androst-1-ene-17β-carboxamide [C71] |  |  |  | > 1000 nM | 10 to 1000 nM | 10 to 1000 nM |
| C[C@]12C=CC(=O)N[C@@H]1CC[C@@H]1[C@@H]2CC[C@]2(C)[C@@H](C(=O)Nc3cccc(N4CCC(CN5CCN(c6ccc7c(c6)C(=O)N(C6CCC(=O)NC6=O)C7=O)CC5)CC4)c3)CC[C@@H]12 (stereo partly drawn) [C45, 1-(4-(1-(3-(3-oxo-4-aza-5α-androst-1-ene-17β-carboxamido)phenyl)piperidine)methyl)-4-(5-(2-(3-(2,6-dioxopiperidine))-isoindole-1,3-dione))piperazine] | > 1000 nM | > 1000 nM | > 1000 nM |  |  |  |
| C[C@]12C=CC(=O)N[C@@H]1CC[C@@H]1[C@@H]2CC[C@]2(C)[C@@H](C(=O)Nc3cccc(N[C@@H]4CCC[C@@H](Nc5cccc6c5C(=O)N([C@@H]5CCC(=O)NC5=O)C6=O)C4)c3)CC[C@@H]12 [C64, N-(3-(N—(N-(4-(2-(3R-(2,6-dioxopiperidine))-isoindole-1,3-dione))-1R,3R-cyclohexanediamine))phenyl)-3-oxo-4-aza-5α-androst-1-ene-17β-carboxamide] | 0.1 to 10 nM | 0.1 to 10 nM | 0.1 to 10 nM |  |  |  |
| C[C@]12C=CC(=O)N[C@@H]1CC[C@@H]1[C@@H]2CC[C@]2(C)[C@@H](C(=O)Nc3cccc(OCCCCNc4cccc5c4C(=O)N(C4CCC(=O)NC4=O)C5=O)c3)CC[C@@H]12 (stereo partly drawn) [C31, N-(3-((4-((4-(2-(3-(2,6-dioxopiperidine))-isoindole-1,3-dione))amino)butyl)oxy)phenyl)-3-oxo-4-aza-5α-androst-1-ene-17β-carboxamide] | > 1000 nM | > 1000 nM | > 1000 nM |  |  |  |
